The values that follow come from patent US20240140944A1, “NOVEL NAPHTHYRIDINONE DERIVATIVE HAVING INHIBITORY ACTIVITY AGAINST ECTONUCLEOTIDE PYROPHOSPHATASE-PHOSPHODIESTERASE AND USE THEREOF” (TXINNO BIOSCIENCE INC., priority 2020, published 2024).

Structures can show the parent of a compound that is named as a salt.

As a reminder, the IC50 is the point on the concentration scale where inhibition reaches its midpoint.

The subject of assay [1] is interferon regulatory factor 3 (IRF3) in HCT116-Dual cells. The experiment in a line: HCT116-Dual Cell Luciferase Assay (ISG54 promoter, IRF3 activity). The format is cell-based. The conditions noted are these: ENPP1 inhibitor usually 10 μM plus cGAMP 10 μM, 48 hours, Lucia luciferase. The text has this:
HCT116-Dual™ cells express genes encoding luciferase secreted under the control of the interferon-stimulated gene 54 (ISG54) promoter along with five interferon-stimulated response elements. The HCT116-Dual™ cell line was used to measure and monitor the activity of interferon regulatory factor 3 (IRF3), which induces production of type I interferon and relates to downstream signaling, and Lucia secreted in the culture medium was used to generate luminescence in a luciferase reaction.
HCT116-Dual™ cells were cultured at 2×10^4 cells/well (93.4 μL) in a 96-well plate for one day in a DMEM medium containing 10% FBS and 25 mM HEPES (pH 7.2-7.5). The cells were treated with 3.3 μL of ENPP1 inhibitor (usually 10 μM) and then 3.3 μL of cGAMP (10 μM) to set the final volume to 100 μL (The final fraction of DMSO was 0.1%). The cells treated with ENPP1 inhibitor and cGAMP were cultured at 37° C. for 48 hours and 50 μL of Quanti-Luc reaction solution was added to 20 μL of cell culture medium to measure luciferase activity. The increase in interferon regulatory factor 3 (IRF3) by the compound compared to cGAMP was determined as fold.

The target of assay [2] is T1, human recombinant ENPP1 enzymes (Homo sapiens, UniProt P22413).
T1 construct: purchased R & D systems
T1 sequence (P22413 1-925): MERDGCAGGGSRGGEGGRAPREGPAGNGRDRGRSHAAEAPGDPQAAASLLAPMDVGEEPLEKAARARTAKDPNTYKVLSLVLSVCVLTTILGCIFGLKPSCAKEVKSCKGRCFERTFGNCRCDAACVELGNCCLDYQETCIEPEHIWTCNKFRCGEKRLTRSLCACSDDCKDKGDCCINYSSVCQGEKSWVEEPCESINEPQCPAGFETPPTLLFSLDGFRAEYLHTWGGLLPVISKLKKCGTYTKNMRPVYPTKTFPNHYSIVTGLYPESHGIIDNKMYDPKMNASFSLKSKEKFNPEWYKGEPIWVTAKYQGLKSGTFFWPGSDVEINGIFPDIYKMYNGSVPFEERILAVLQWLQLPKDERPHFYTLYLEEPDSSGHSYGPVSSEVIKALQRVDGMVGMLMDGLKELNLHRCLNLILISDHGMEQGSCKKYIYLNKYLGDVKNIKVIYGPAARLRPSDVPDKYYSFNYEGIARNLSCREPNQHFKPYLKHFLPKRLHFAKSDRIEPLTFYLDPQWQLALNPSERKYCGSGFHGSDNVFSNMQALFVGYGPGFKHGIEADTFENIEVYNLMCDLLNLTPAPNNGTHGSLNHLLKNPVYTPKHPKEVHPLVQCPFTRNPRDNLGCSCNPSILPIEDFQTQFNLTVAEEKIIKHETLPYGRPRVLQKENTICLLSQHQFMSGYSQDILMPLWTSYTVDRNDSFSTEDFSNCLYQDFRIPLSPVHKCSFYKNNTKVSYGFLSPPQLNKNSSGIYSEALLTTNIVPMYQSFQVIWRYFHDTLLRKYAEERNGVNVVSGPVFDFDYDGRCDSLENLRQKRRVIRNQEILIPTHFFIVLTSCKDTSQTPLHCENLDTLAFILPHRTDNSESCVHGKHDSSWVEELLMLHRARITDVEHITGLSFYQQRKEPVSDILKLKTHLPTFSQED
The experiment in a line: ENPP1 Enzyme Assay with cGAMP Substrate (AMP-Glo). It counts as biochemical. Conditions: human recombinant ENPP1 3 ng/reaction, cGAMP 5 μM, 37° C. 90 minutes, average of two or more tests; read-out: Enzymatic activity IC50. Summed up:
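Human recombinant ENPP1 (3 ng/reaction) preincubated 5–10 min at RT with inhibitor, then reacted with 5 µM cGAMP for 90 min at 37 °C in 50 mM Tris pH 8.5, 250 mM NaCl, 0.5 mM CaCl2, 1 µM ZnCl2, 1% DMSO. AMP produced read by AMP-Glo luminescence; IC50 from 3-parameter fit, averaged over ≥2 runs.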

On to `NS(=O)(=O)Nc1cc(-c2ccnc3[nH]c(=O)ccc23)ccc1F` [Example 36, N-(2-fluoro-5-(7-oxo-7,8-dihydro-1,8-naphthyridin-4-yl)phenyl)sulfamide hydrochloride], for which, in assay [1], the “Cellular activity: increase in IRF3 by the compound compared to cGAMP, as fold” value (shortened to “Cellular activity: increase in IRF3 … as fold”) was “B (1< Fold <2)”. Also, the IC50 in assay [2] was below 1000 nM.

On to `CN(Cc1ccc(-c2ccnc3[nH]c(=O)ccc23)c(F)c1)S(N)(=O)=O.Cl` [Example 55, N-(3-fluoro-4-(7-oxo-7,8-dihydro-1,8-naphthyridin-4-yl)benzyl)-N-methylsulfamide hydrochloride], for which, in assay [1], the “Cellular activity: increase in IRF3 … as fold” value is “B (1< Fold <2)”. In assay [2], the IC50 was below 1000 nM.

On to `CCN(Cc1ccc(-c2ccnc3[nH]c(=O)ccc23)c(F)c1)S(N)(=O)=O.Cl` [Example 56, N-ethyl-N-(3-fluoro-4-(7-oxo-7,8-dihydro-1,8-naphthyridin-4-yl)benzyl)sulfamide hydrochloride], for which the “Cellular activity: increase in IRF3 … as fold” value in assay [1] was “B (1< Fold <2)”. Further, the concentration for half-maximal inhibition (IC50) in assay [2] is below 1000 nM.

Consider `Cl.Nc1ccc(F)c(-c2ccnc3[nH]c(=O)ccc23)c1` [Example 8], for which the “Cellular activity: increase in IRF3 … as fold” value in assay [1] was “B (1< Fold <2)”.

In the case of `NS(=O)(=O)N1CCc2ccc(Nc3ccnc4[nH]c(=O)ccc34)cc2C1` [Example 102, 7-((7-oxo-7,8-dihydro-1,8-naphthyridin-4-yl)amino)-3,4-dihydroisoquinolin-2(1H)-yl)sulfamide dihydrochloride], the “Cellular activity: increase in IRF3 … as fold” value in assay [1] is on record as “A (>2)”. Further, the IC50 in assay [2] is below 1000 nM.

Turning to `Cl.NS(=O)(=O)N1CCc2ccc(-c3ccnc4c3CCC(=O)N4)cc2C1` [Example 145, (7-(7-oxo-5,6,7,8-tetrahydro-1,8-naphthyridin-4-yl)-3,4-dihydroisoguinolin-2(1H)-yl)sulfamide hydrochloride], in assay [1], the “Cellular activity: increase in IRF3 … as fold” value was “B (1< Fold <2)”. Moreover, the IC50 in assay [2] was below 1000 nM.

In the case of `NS(=O)(=O)Nc1cccc(-c2ccnc3[nH]c(=O)ccc23)c1` [Example 35, N-(3-(7-oxo-7,8-dihydro-1,8-naphthyridin-4-yl)phenyl)sulfamide hydrochloride], the “Cellular activity: increase in IRF3 … as fold” value in assay [1] is recorded as “B (1< Fold <2)”. The 50% inhibitory concentration (IC50) in assay [2] is below 1000 nM.

Regarding `Cl.NS(=O)(=O)N(Cc1ccc(-c2ccnc3[nH]c(=O)ccc23)cc1F)C1CC1` [Example 54, N-cyclopropyl-N-(2-fluoro-4-(7-oxo-7,8-dihydro-1,8-naphthyridin-4-yl)benzyl)sulfamide hydrochloride], the “Cellular activity: increase in IRF3 … as fold” value in assay [1] was “B (1< Fold <2)”. The IC50 in assay [2] was below 1000 nM.

With `Cl.NCc1ccc(-c2ccnc3[nH]c(=O)ccc23)c(F)c1F` [Example 13, 5-(4-(aminomethyl)-2,3-difluorophenyl)-1,8-naphthyridin-2(1H)-one hydrochloride], the “Cellular activity: increase in IRF3 … as fold” value in assay [1] is “A (>2)”. Besides, the concentration for half-maximal inhibition (IC50) in assay [2] is below 1000 nM.

As for `CC(C)NCc1ccc(-c2ccnc3[nH]c(=O)ccc23)c(F)c1.Cl` [Example 21, 5-(2-fluoro-4-((isopropylamine)methyl)phenyl)-1,8-naphthyridin-2(1H)-one hydrochloride], the “Cellular activity: increase in IRF3 … as fold” value in assay [1] is listed as “B (1< Fold <2)”. Further, the IC50 in assay [2] was above 10000 nM.

`CCN(CCc1cccc(Nc2ccnc3[nH]c(=O)ccc23)c1)S(N)(=O)=O` [Example 94, N-ethyl-N-(3-((7-oxo-7,8-dihydro-1,8-naphthyridin-4-yl)amino)phenethyl)sulfamide dihydrochloride]: in assay [1], the “Cellular activity: increase in IRF3 … as fold” value is listed as “B (1< Fold <2)”. In addition, the IC50 in assay [2] is below 1000 nM.

In the case of `C[C@@H](N)c1ccc(-c2ccnc3[nH]c(=O)ccc23)cc1.Cl` [Example 15, (R)-5-(4-(1-aminoethyl)phenyl)-1,8-naphthyridin-2(1H)-one hydrochloride], the “Cellular activity: increase in IRF3 … as fold” value in assay [1] is on record as “B (1< Fold <2)”. The concentration for half-maximal inhibition (IC50) in assay [2] is below 1000 nM.

For `NS(=O)(=O)NCc1ccc(-c2ccnc3[nH]c(=O)ccc23)cc1F` [Example 41, N-(2-fluoro-4-(7-oxo-7,8-dihydro-1,8-naphthyridin-4-yl)benzyl)sulfamide], the “Cellular activity: increase in IRF3 … as fold” value in assay [1] was “B (1< Fold <2)”.

As to `NS(=O)(=O)NCc1cc(-c2ccnc3[nH]c(=O)ccc23)ccc1F` [Example 38, N-(2-fluoro-5-(7-oxo-7,8-dihydro-1,8-naphthyridin-4-yl)benzyl)sulfamide hydrochloride], in assay [1], the “Cellular activity: increase in IRF3 … as fold” value is on record as “B (1< Fold <2)”. The IC50 in assay [2] was below 1000 nM.

For `NS(=O)(=O)Nc1ccc(Nc2ccnc3[nH]c(=O)ccc23)cc1` [Example 97, N-(4-((7-oxo-7,8-dihydro-1,8-naphthyridin-4-yl)amino)phenyl)sulfamide dihydrochloride], in assay [1], the “Cellular activity: increase in IRF3 … as fold” value is “B (1< Fold <2)”. In assay [2], the half-maximal inhibitory concentration (IC50) was below 1000 nM.

On to `CC(N)c1ccc(-c2ccnc3[nH]c(=O)ccc23)cc1.Cl` (centres unmarked) [Example 14, 5-(4-(1-aminoethyl)phenyl)-1,8-naphthyridin-2(1H)-one hydrochloride], for which the “Cellular activity: increase in IRF3 … as fold” value in assay [1] is reported as “B (1< Fold <2)”. Besides, the IC50 in assay [2] is below 1000 nM.

For the molecule `Cl.O=c1ccc2c(-c3ccc(CNC4CC4)c(F)c3)ccnc2[nH]1` [Example 25, 5-(4-((cyclopropylamino)methyl)-3-fluorophenyl)-1,8-naphthyridin-2(1H)-one hydrochloride], the “Cellular activity: increase in IRF3 … as fold” value in assay [1] was “A (>2)”. For the same molecule, the IC50 in assay [2] is 1000 to 10000 nM.

`CN(CCc1cccc(Nc2ccnc3[nH]c(=O)ccc23)c1)S(N)(=O)=O` [Example 93, N-methyl-N-(3-((7-oxo-7,8-dihydro-1,8-naphthyridin-4-yl)amino)phenethyl)sulfamide dihydrochloride]: the “Cellular activity: increase in IRF3 … as fold” value in assay [1] is “B (1< Fold <2)”. Further, the IC50 in assay [2] was below 1000 nM.

Take `NS(=O)(=O)NCc1ccc(-c2ccnc3c2CCC(=O)N3)cc1F` [Example 142, N-(2-fluoro-4-(7-oxo-5,6,7,8-tetrahydro-1,8-naphthyridin-4-yl)benzyl)sulfamide]: the “Cellular activity: increase in IRF3 … as fold” value in assay [1] is recorded as “B (1< Fold <2)”. For the same molecule, the IC50 in assay [2] is below 1000 nM.

Turning to `CCN(Cc1ccc(-c2ccnc3[nH]c(=O)ccc23)cc1F)S(N)(=O)=O.Cl` [Example 53, N-ethyl-N-(2-fluoro-4-(7-oxo-7,8-dihydro-1,8-naphthyridin-4-yl)benzyl)sulfamide hydrochloride], in assay [1], the “Cellular activity: increase in IRF3 … as fold” value is “B (1< Fold <2)”. Moreover, the IC50 in assay [2] was below 1000 nM.

As for “5-(7-oxo-5,6,7,8-tetrahydro-1,8-naphthyridin-4-yl)isoindoline-2-sulfamide hydrochloride [Example 143]”, the “Cellular activity: increase in IRF3 … as fold” value in assay [1] was “B (1< Fold <2)”.

Regarding `Cl.O=c1ccc2c(-c3ccc(CNC4CC4)cc3F)ccnc2[nH]1` [Example 22, 5-(4-((cyclopropylamino)methyl)-2-fluorophenyl)-1,8-naphthyridin-2(1H)-one hydrochloride], the “Cellular activity: increase in IRF3 … as fold” value in assay [1] was “B (1< Fold <2)”. Further, the IC50 in assay [2] lay in the range of 1000 to 10000 nM.
